In general, AUC(0-t) refers to the area under the concentration-time curve up to a stated or last time point. A higher AUC(0-t) goes with more exposure. One may read the Cmax as the peak of the concentration-time curve. One may read the half-life as the time in which the quantity being followed falls by half.

Chain of Ba/F3 EGFR Del19/C797S cells (P00533 with tags, fused parts or gaps DEL746-750/C797S, form open): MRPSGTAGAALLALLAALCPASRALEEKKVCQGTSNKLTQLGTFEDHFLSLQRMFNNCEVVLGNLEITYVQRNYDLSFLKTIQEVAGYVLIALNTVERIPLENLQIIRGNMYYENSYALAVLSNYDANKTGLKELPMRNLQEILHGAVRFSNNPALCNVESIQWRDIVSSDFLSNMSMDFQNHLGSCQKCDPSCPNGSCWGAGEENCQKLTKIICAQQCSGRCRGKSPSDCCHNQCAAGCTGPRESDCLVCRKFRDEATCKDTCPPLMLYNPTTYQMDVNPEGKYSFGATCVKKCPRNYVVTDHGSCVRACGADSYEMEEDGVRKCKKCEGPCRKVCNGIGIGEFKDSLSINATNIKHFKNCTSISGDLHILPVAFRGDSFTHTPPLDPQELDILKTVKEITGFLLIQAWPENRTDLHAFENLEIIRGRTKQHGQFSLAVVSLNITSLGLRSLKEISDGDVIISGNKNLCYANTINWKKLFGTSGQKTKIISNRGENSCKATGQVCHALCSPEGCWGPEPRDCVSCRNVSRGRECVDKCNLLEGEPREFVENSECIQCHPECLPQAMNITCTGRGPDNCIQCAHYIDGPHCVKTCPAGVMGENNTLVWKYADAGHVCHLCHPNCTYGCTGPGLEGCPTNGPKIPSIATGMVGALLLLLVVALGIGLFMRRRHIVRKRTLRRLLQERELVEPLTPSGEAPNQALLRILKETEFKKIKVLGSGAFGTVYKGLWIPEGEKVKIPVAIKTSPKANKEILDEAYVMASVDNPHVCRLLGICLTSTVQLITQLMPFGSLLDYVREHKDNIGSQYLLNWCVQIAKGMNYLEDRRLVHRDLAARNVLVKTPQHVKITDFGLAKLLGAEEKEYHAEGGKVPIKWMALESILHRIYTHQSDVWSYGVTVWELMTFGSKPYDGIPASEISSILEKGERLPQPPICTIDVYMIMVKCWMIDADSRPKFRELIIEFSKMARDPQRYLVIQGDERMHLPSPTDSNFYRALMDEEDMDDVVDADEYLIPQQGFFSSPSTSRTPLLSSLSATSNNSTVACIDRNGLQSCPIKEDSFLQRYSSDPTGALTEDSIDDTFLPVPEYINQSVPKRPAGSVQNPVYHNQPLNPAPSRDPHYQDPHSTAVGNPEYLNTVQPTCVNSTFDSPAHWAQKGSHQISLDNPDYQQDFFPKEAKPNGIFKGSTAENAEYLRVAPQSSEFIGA

The first data set addresses Ba/F3 EGFR Del19/C797S cells (Homo sapiens, UniProt P00533, C797S, cells depend on it, form not given). Put plainly: Cell proliferation inhibition (Cell Titer-Glo), Ba/F3 EGFR Del19/C797S. It is filed as cell-based, mouse. The conditions noted are these: 72 hours, CellTiter-Glo, read-out: Ba/F3 EGFR Del19/C797S IC50. The source says:
Experimental objective: The objective of this test example is to test the inhibitory activity of compounds on the proliferation of different EGFR C797S drug-resistant mutant cell lines Ba/F3 EGFR Del19/T790M/C797S, Ba/F3 EGFR L858R/T790M/C797S, and Ba/F3 EGFR Del19/C797S.
• Ba/F3 EGFR Del19/T790M/C797S cells were purchased from KYinno Biotechnology Co., Ltd.; • Ba/F3 EGFR Del19/C797S cells were purchased from CoBioer Biosciences Co., Ltd.; • Ba/F3 EGFR L858R/T790M/C797S cells were purchased from CoBioer Biosciences Co., Ltd.; • Cell Titer-Glo was purchased from Promega, with a catalog number of G7573; • RPMI 1640 was purchased from Gibco, with a catalog number of 22400089; • FBS was purchased from Gibco, with a catalog number of 10091148; • cell culture plates were purchased from Corning, with a catalog number of 3610.
The inhibitory activity of the compound on the proliferation of different EGFR C797S drug-resistant mutant cell lines was detected using the Cell Titer-Glo method. The different cell lines were cultured in RPMI 1640 complete culture medium containing 10% FBS under conditions of 37° C. and 5% CO2, the cells were collected by centrifugation when growing to a certain density, and adjusted to appropriate cell density after counting, the cells were spread on a white 96-well plate at 90 μL/well, and cultured in a 37° C., 5% CO2 incubator overnight, prepared compound solutions of different concentrations were added at 10 μL/well, corresponding solvent controls were set, and all wells were cultured in a 37° C., 5% CO2 incubator for 72 hours, 50 μL of CellTiter-Glo solution was added to each well, shook and mixed evenly, and incubated in the dark for 10 minutes, and a BioTek Synergy H1 microplate reader was used for reading.
The luminescence signal value was used to calculate the inhibition rate. Graphpad Prism software was used to fit the concentration and inhibition rate to a nonlinear regression curve, so as to obtain the IC50 value, as shown in the Table below for details.
For orientation: ATP-based viability assays read luminescence as a measure of living cells.
For the molecule `[2H]C([2H])([2H])c1nn(C)cc1-c1nccc(Nc2cc3c(C(C)C)ccc(N4C[C@H](CS(C)(=O)=O)[C@H]4C)c3cn2)n1` [Example 3, 5-isopropyl-8-((2R,3S)-2-methyl-3-((methanesulfonyl)methyl)azetidin-1-yl)-N-(2-(1-methyl-3-(methyl-d3)-1H-pyrazol-4-yl)pyrimidin-4-yl)isoquinolin-3-amine], the GI50 was determined as 16 nM.
As for `CC(C)c1ccc(N2C[C@H](CS(C)(=O)=O)[C@H]2C)c2cnc(Nc3ccnc(-c4cn(C[C@H]5CCN5C)nc4Cl)n3)cc12` [Example 146, N-(2-(3-chloro-1-(((R)-1-methylazetidin-2-yl)methyl)-1H-pyrazol-4-yl)pyrimidin-4-yl)-5-isopropyl-8-((2R,3S)-2-methyl-3-((methanesulfonyl)methyl)azetidin-1-yl)isoquinolin-3-amine], the GI50 stood at 80 nM.
In the case of `CC(C)c1ccc(N2C[C@H](CS(C)(=O)=O)[C@H]2C)c2cnc(Nc3ccnc(-c4cn(C5CC6CN(C)CC6C5)nc4Cl)n3)cc12` (stereo partly drawn) [Example 150, N-(2-(3-chloro-1-(2-methyloctahydrocyclopentadieno[c]pyrrol-5-yl)-1H-pyrazol-4-yl)pyrimidin-4-yl)-5-isopropyl-8-((2R,3S)-2-methyl-3-((methanesulfonyl)methyl)azetidin-1-yl)isoquinolin-3-amine], the GI50 is 70 nM.
On the same count and under the same terms, then `CC(C)c1ccc(N2C[C@H](CS(C)(=O)=O)[C@H]2C)c2cnc(Nc3ccnc(-c4cn(C5CC(C#N)C5)nc4Cl)n3)cc12` (stereo partly drawn) [Example 151A, 3-(3-chloro-4-(4-((5-isopropyl-8-((2R,3S)-2-methyl-3-((methanesulfonyl)methyl)azetidin-1-yl)isoquinolin-3-yl)amino)pyrimidin-2-yl)-1H-pyrazol-1-yl)cyclobutane-1-carbonitrile], with 41 nM; and `CC(C)c1ccc(N2C[C@H](CS(C)(=O)=O)[C@H]2C)c2cnc(Nc3ccnc(-c4cn(C5CC(O)C5)nc4Cl)n3)cc12` (stereo partly drawn) [Example 154A, 3-(3-chloro-4-(4-((5-isopropyl-8-((2R,3S)-2-methyl-3-((methanesulfonyl)methyl)azetidin-1-yl)isoquinolin-3-yl)amino)pyrimidin-2-yl)-1H-pyrazol-1-yl)cyclobutan-1-ol], with 22 nM.
Turning to `CC(C)c1ccc(N2C[C@H](CS(C)(=O)=O)[C@H]2C)c2cnc(Nc3ccnc(-c4cn(C5CC(=O)C5)nc4Cl)n3)cc12` [Example 156, 3-(3-chloro-4-(4-((5-isopropyl-8-((2R,3S)-2-methyl-3-((methanesulfonyl)methyl)azetidin-1-yl)isoquinolin-3-yl)amino)pyrimidin-2-yl)-1H-pyrazol-1-yl)cyclobutan-1-one], the GI50 turned out to be 42 nM.
The same measure, in the same setting: with `CC(C)c1ccc(N2C[C@H](CS(C)(=O)=O)[C@H]2C)c2cnc(Nc3ccnc(-c4cn(C5CCN(C)CC5)nc4Cl)n3)cc12` [Example 158, N-(2-(3-chloro-1-(1-methylpiperidin-4-yl)-1H-pyrazol-4-yl)pyrimidin-4-yl)-5-isopropyl-8-((2R,3S)-2-methyl-3-((methanesulfonyl)methyl)azetidin-1-yl)isoquinolin-3-amine] the figure was 50 nM.
In the case of `CC(C)c1ccc(N2C[C@H](CS(C)(=O)=O)[C@H]2C)c2cnc(Nc3ccnc(-c4cn(CC5CCO5)nc4Cl)n3)cc12` (stereo partly drawn) [Example 165, N-(2-(3-chloro-1-(oxetan-2-ylmethyl)-1H-pyrazol-4-yl)pyrimidin-4-yl)-5-isopropyl-8-((2R,3S)-2-methyl-3-((methanesulfonyl)methyl)azetidin-1-yl)isoquinolin-3-amine], the GI50 worked out at 22 nM.
Take `Cc1nn(C)cc1-c1nccc(Nc2cc3c(C(C)C)ccc(N4CC(CS(C)(=O)=NC#N)C4)c3cn2)n1` (stereo not drawn) [Example 167, N-(((1-(3-((2-(1,3-dimethyl-1H-pyrazol-4-yl)pyrimidin-4-yl)amino)-5-isopropylisoquinolin-8-yl)azetidin-3-yl)methyl)(methyl)(carbonyl)-16-sulfanylidene)cyanamide]: the GI50 turned out to be 74 nM.
As for `CC(C)c1c(N)cc(N2C[C@H](CS(C)(=O)=O)[C@H]2C)c2cnc(Nc3ccnc(-c4cn(C)nc4Cl)n3)cc12` [Example 169, N3-(2-(3-chloro-1-methyl-1H-pyrazol-4-yl)pyrimidin-4-yl)-5-isopropyl-8-((2R,3S)-2-methyl-3-((methanesulfonyl)methyl)azetidin-1-yl)isoquinoline-3,6-diamine], the GI50 is 52 nM.
Same read-out and setting: then `CC(C)c1ccc(N2C[C@H](CS(C)(=O)=O)[C@H]2C)c2cnc(Nc3ccnc(-c4c[nH]nc4Cl)n3)cc12` [Example 170, N-(2-(3-chloro-1H-pyrazol-4-yl)pyrimidin-4-yl)-5-isopropyl-8-((2R,3S)-2-methyl-3-((methanesulfonyl)methyl)azetidin-1-yl)isoquinolin-3-amine], with 60 nM; and `CC(C)c1ccc(N2C[C@H](CS(C)(=O)=O)[C@H]2C)c2cnc(Nc3ccnc(-c4cn(C(F)F)nc4Cl)n3)cc12` [Example 177, N-(2-(3-chloro-1-(difluoromethyl)-1H-pyrazol-4-yl)pyrimidin-4-yl)-5-isopropyl-8-((2R,3S)-2-methyl-3-((methanesulfonyl)methyl)azetidin-1-yl)isoquinolin-3-amine], with 43 nM.
As to `CC(C)c1c(F)cc(N2CC(NS(C)(=O)=O)C2)c2cnc(Nc3ccnc(-c4cn(C)nc4Cl)n3)cc12` [Example 178, N-(1-(3-((2-(3-chloro-1-methyl-1H-pyrazol-4-yl)pyrimidin-4-yl)amino)-6-fluoro-5-isopropylisoquinolin-8-yl)azetidin-3-yl)methanesulfonamide], the GI50 worked out at 19 nM.
Still for that read-out and setting: with `CC(C)c1ccc(N2C[C@H](CS(C)(=O)=O)[C@H]2C)c2cnc(Nc3ccnc(-c4cn(C(C)CC#N)nc4Cl)n3)cc12` (stereo partly drawn) [Example 185, 3-(3-chloro-4-(4-((5-isopropyl-8-((2R,3S)-2-methyl-3-((methanesulfonyl)methyl)azetidin-1-yl)isoquinolin-3-yl)amino)pyrimidin-2-yl)-1H-pyrazol-1-yl)butyronitrile] the figure was 80 nM; with `CC1CC(Cn2cc(-c3nccc(Nc4cc5c(C(C)C)ccc(N6C[C@H](CS(C)(=O)=O)[C@H]6C)c5cn4)n3)c(Cl)n2)O1` (stereo partly drawn) [Example 188, N-(2-(3-chloro-1-((4-methyloxetan-2-yl)methyl)-1H-pyrazol-4-yl)pyrimidin-4-yl)-5-isopropyl-8-((2R,3S)-2-methyl-3-((methanesulfonyl)methyl)azetidin-1-yl)isoquinolin-3-amine], 65 nM.

Tested on in a further data set: not listed separately
Briefly: Rat pharmacokinetic evaluation test. In kind it is in vivo. As to conditions: Sprague-Dawley (SD), po, SD rats, male, p.o. 5 mg/kg, plasma. How it is done:
SD rats were used as test animals to study the pharmacokinetic behavior of the compounds of the present invention in the rat body (plasma) after oral administration at a dose of 5 mg/kg.
2.2 Experimental Animals: 3 SD Rats/Group, Male, from Shanghai Jiesijie Experimental Animal Co., Ltd., Animal Production License Number (SCXK (Shanghai) 2013-0006 No. 311620400001794).
• Oral administration drug preparation: 20% solutol HS15 in 0.5% MC (methylcellulose)
20 g of a Solutol HS15 solid and 0.5 g of a MC solid powder were weighed and dissolved in 80 mL of purified water, and the mixture was vortexed, mixed until uniform, and subjected to ultrasound treatment to obtain a clear solution of 20% solutol HS15 in 0.5% MC.
The example compound was weighed into a 20 mL glass bottle, the solution was added thereto and the mixture was subjected to ultrasound treatment for 10 minutes to obtain a clear solution with a concentration of 0.5 mg/mL.
3 male SD rats were administered p.o. respectively after the 3 male SD rats were fasted overnight; the p.o. dose was 5 mg/kg and the administration volume was 10 mL/kg.
Blood collection: Before and after administration to rats, 0.2 mL of blood was collected from the jugular vein at 0.25, 0.5, 1, 2, 4, 6, 8 and 24 h, and placed in an EDTA-K2 anticoagulation tube, which was centrifuged at 6000 rpm at 4° C. for 6 min to separate plasma which was stored at −80° C.; the rats were fed 4 h after administration.
1) 160 μL of acetonitrile was added to 40 μL of plasma sample for precipitation, mixed and centrifuged at 3500×g for 5 to 20 min.
2) the treated supernatant solution was taken and subjected to LC/MS/MS to analyze the concentrations of the test compounds. LC/MS/MS analysis instrument: AB Sciex API 4000 Qtrap.
• Liquid phase conditions: Shimadzu LC-20AD pump • Chromatographic column: Agilent ZORBAX XDB-C18 (50×2.1 mm, 3.5 μm) mobile phase: liquid A is 0.1% aqueous formic acid solution, liquid B is acetonitrile • Flow rate: 0.4 mL/min • Elution time: 0-4.0 min, the eluent is as follows:
The main pharmacokinetic parameters were calculated using WinNonlin 6.1.
The molecule `[2H]C([2H])([2H])c1nn(C)cc1-c1nccc(Nc2cc3c(C(C)C)ccc(N4C[C@H](CS(C)(=O)=O)[C@H]4C)c3cn2)n1` [Example 3, 5-isopropyl-8-((2R,3S)-2-methyl-3-((methanesulfonyl)methyl)azetidin-1-yl)-N-(2-(1-methyl-3-(methyl-d3)-1H-pyrazol-4-yl)pyrimidin-4-yl)isoquinolin-3-amine] had an AUC(0-t) of 2380 ng·h/mL, a Cmax of 458 ng/mL and a half-life of 4.1 h.

The values above are taken from patent publication US20250206718A1, “NITROGEN-CONTAINING HETEROCYCLIC DERIVATIVE INHIBITOR, PREPARATION METHOD THEREFOR AND USE THEREOF” (SHANGHAI HANSOH BIOMEDICAL CO., LTD., priority 2022, published 2025).
